Here are results for 12 compounds from patent publication US9926319B2, “Pyridyl piperidines” (MERCK PATENT GMBH, priority 2014, dated 2018).

Like-named read-outs stand apart in the source and are kept apart here.

Data set [1] relates to Wnt pathway. Nature of the data set: Cellular assay for Wnt pathway activity (luciferase reporter cell based assay). The conditions noted are these: HEK293 luciferase reporter cell line (ER-DSH, TCF dependent promoter), induced with estrogen (1 μM), read-out: 7df3 IC50. For orientation: A reporter such as luciferase makes a cellular process visible.
Data set [2] in a line: CLint (intrinsic clearance) assay, microsomal incubation. Type of data set: in vitro ADME, Human. The conditions noted are these: NADPH, 37° C., up to 30 min; for microsomal CLint at 0.8 μM: human, liver microsomes, pH 7.4, human liver microsomes 0.5 mg/mL protein; for Human Clint: human liver microsomes 0.5 mg/mL protein. An outline of the steps:
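Test compound at 0.8 μM was incubated at 37 °C with liver microsomes at 0.5 mg/mL protein in 0.1 M potassium phosphate pH 7.4 with 1 mM MgCl2, NADPH-started, with no-cofactor controls. Acetonitrile quench at 0, 5, 10, 20 and 30 min, then LC-MS/MS peak-area decline. CLint (μL/min/mg protein) = k·1000/protein concentration.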
In general terms: Liver microsomes are a subcellular fraction often used to study metabolism.

By IC50 is commonly meant the concentration that inhibits the measured activity by half. A word on the microsomal CLint: it is the rate of metabolic loss divided by the concentration. Take `Cn1ncc2ccc(-c3cncc(Cl)c3N3CCC4(CC3)CC(=O)NC4=O)cc21` [Example 66, 8-[3-Chloro-5-(1-methyl-1H-indazol-6-yl)-pyridin-4-yl]-2,8-diaza-spiro[4.5]decane-1,3-dione]: in data set [1] (24 h), the IC50 was 15 nM. Besides, the intrinsic metabolic clearance (microsomal CLint) at 0.8 μM in data set [2] is less than 10 µL/min/mg.
The corresponding values for `Cn1cc(-c2ccc(-c3cncc(Cl)c3N3CCC4(CC3)C(=O)Nc3cccnc34)cc2)cn1` [Example 68] are 1.4 nM and 65 µL/min/mg.
The corresponding values for `Cn1cc(-c2ccc(-c3cncc(Cl)c3N3CCC4(CC3)C(=O)Nc3ccccc34)cc2)cn1` [Example 69] are 1.1 nM and 89 µL/min/mg.
For the compound `Cn1ncc2cc(-c3cncc(Cl)c3N3CCC4(CC3)C(=O)NCC4O)ccc21` (stereo not drawn) [Example 70, 8-[3-Chloro-5-(1-methyl-1H-indazol-5-yl)-pyridin-4-yl]-4-hydroxy-2,8-diaza-spiro[4.5]decan-1-one], the concentration for half-maximal inhibition (IC50) in data set [1] (24 hours) amounted to 20 nM. Further, the “Human Clint” value in data set [2] came to 24 µL/min/mg.
Take `Cn1cc(-c2ccc(-c3cncc(Cl)c3N3CCC4(CC3)NCCNC4=O)cc2)cn1` [Example 71, 9-{3-Chloro-5-[4-(1-methyl-1H-pyrazol-4-yl)-phenyl]-pyridin-4-yl}-1,4,9-triaza-spiro[5.5]undecan-5-one]: in data set [1] (24 h), the IC50 was found to be 12 nM. In addition, the intrinsic metabolic clearance (microsomal CLint) at 0.8 μM in data set [2] was determined as 49 µL/min/mg.
For `O=C1NCCNC12CCN(c1c(Cl)cncc1-c1ccc3oc(=O)[nH]c3c1)CC2` [Example 72, 9-[3-Chloro-5-(2-oxo-2,3-dihydro-benzooxazol-5-yl)-pyridin-4-yl]-1,4,9-triaza-spiro[5.5]undecan-5-one], in that order: 35 nM and less than 10 µL/min/mg.
As for `CN1C(=O)Cc2ccc(-c3cncc(Cl)c3N3CCC(N)(C(N)=O)CC3)cc21` [Example 73, 4-Amino-5′-chloro-3′-(1-methyl-2-oxo-2,3-dihydro-1H-indol-6-yl)-3,4,5,6-tetrahydro-2H-[1,4′]bipyridinyl-4-carboxylic acid amide], in data set [1] (24 h), the half-maximal inhibitory concentration (IC50) was 12 nM. For the same compound, the microsomal CLint at 0.8 μM in data set [2] was determined as 17 µL/min/mg.
For `CN1C(=O)Cc2ccc(-c3cncc(Cl)c3N3CCC4(CC3)NCNC4=O)cc21` [Example 74, 8-[3-Chloro-5-(1-methyl-2-oxo-2,3-dihydro-1H-indol-6-yl)-pyridin-4-yl]-1,3,8-triaza-spiro[4.5]decan-4-one], in that order: 20 nM and 20 µL/min/mg.
For `CN1c2ccc(-c3cncc(Cl)c3N3CCC4(CC3)NCNC4=O)cc2CS1(=O)=O` [Example 75, 8-[3-Chloro-5-(1-methyl-2,2-dioxo-2,3-dihydro-1H-2l6-benzo[c]isothiazol-5-yl)-pyridin-4-yl]-1,3,8-triaza-spiro[4.5]decan-4-one], in that order: 4.7 nM and 20 µL/min/mg.
For `CN1c2ccc(-c3cncc(F)c3N3CCC4(CCNC4=O)CC3)cc2CS1(=O)=O` [Example 76, 8-[3-Fluoro-5-(1-methyl-2,2-dioxo-2,3-dihydro-1H-2l6-benzo[c]isothiazol-5-yl)-pyridin-4-yl]-2,8-diaza-spiro[4.5]decan-1-one], the IC50 in data set [1] (24 h) turned out to be 9.1 nM. Further, the “Human Clint” value in data set [2] was 36 µL/min/mg.
With `COCC1(C(N)=O)CCN(c2c(Cl)cncc2-c2ccc3c(c2)CS(=O)(=O)N3C)CC1` [Example 77, 5′-Chloro-4-methoxymethyl-3′-(1-methyl-2,2-dioxo-2,3-dihydro-1H-2l6-benzo[c]isothiazol-5-yl)-3,4,5,6-tetrahydro-2H-[1,4′]bipyridinyl-4-carboxylic acid amide], the half-inhibitory concentration (IC50) in data set [1] (24 h) is 0.43 nM. The microsomal CLint at 0.8 μM in data set [2] amounted to 75 µL/min/mg.
Regarding `CC(C)n1cc(-c2ccc(-c3cncc(Cl)c3N3CCC4(CC3)NCNC4=O)cc2)cn1` [Example 78, 8-{3-Chloro-5-[4-(1-isopropyl-1H-pyrazol-4-yl)-phenyl]-pyridin-4-yl}-1,3,8-triaza-spiro[4.5]decan-4-one], the 50% inhibitory concentration (IC50) in data set [1] (24 h) worked out at 3.8 nM. For the same compound, the intrinsic metabolic clearance (microsomal CLint) at 0.8 μM in data set [2] was 30 µL/min/mg.
